Laboratory results: US20130253048A1, “Pharmaceutical Composition for Promoting Osteogenesis Containing Axial-equatorial Aryl-oriented Furofuran-type Lignan, and Pharmaceutical Preparation, Functional Food Product, and Health Food Product Comprising Composition” (ERINA CO., INC., priority 2010, published 2013)
Marks after values point to notes of the source that are not given here.

Assays:
[1] = Cell viability, MTT test in MC3T3-E1; assay type: cell-based; settings: mouse, MC3T3-E1 cells (osteoblast-like cell line), MC3T3-E1, negative control = 100
Protocol: MC3T3-E1 cells ((IAA) the Institution of Physical and Chemical Research), osteoblast-like cell line derived from the mouse fetus cranial bone cells, were inoculated into the 96 well plate at 4,000 cells/well. As a medium, the basal medium prepared in the Example 3 supplemented with fargesin at 2 to 80 μM was used. Pre-culture was performed by using the basal medium only under the conditions of 5% CO2 and 37 degree centigrade for 3 days. After that, the conditioned medium was changed to fresh medium with fargesin; the culture was performed under the conditions of 5% CO2 and 37 degree centigrade for 3 days. On the day 4 from the culture start, the conditioned medium was changed to the fresh medium; the culture was further performed under the conditions of 5% CO2 and 37 degree centigrade for 3 days. After the termination of the culture, the following MTT test, measurement of ALP activities, and the staining were performed.
Cell viability was measured by using MTT test. MTT reagent was prepared by dissolving 50 mg of 3-(4,5-dimethyl-thiazol-2-yl)-2,5-diphenyl tetrazolium bromide in 10 ml of PBS (−). After the termination of the culture, the medium containing fargesin was partially removed from each well to adjust the solution volume to 100 μL. Ten μl of the MTT reagent was then added to each well to be reacted to give blue-violet color in the CO2 incubator.
After the termination of the reaction, all medium was removed from each well, 100 μl of DMSO as a lysis solution was added to each well, and then the absorbance was measured at 570 nm to study the viability of live cells.

[2] = test system: ovariectomized mouse (OVX mouse); assay: Bone formation in ovariectomized mouse (OVX mouse), dosing after bone resorption induction period, femur pQCT; assay type: in vivo; settings: for Bone strength (polar coordinates torsion strength): compared to Control OVX group; for Bone density of cancellous bone, relative value / Bone density of cortical bone, relative value / Bone density of the whole bones, relative value: 5M Sham = 100; for Bone density of cancellous bone / Bone density of cortical bone / Bone thickness of cortical bone / Cross section area of cortical bone / Perimeter of cortical bone adventitia / Perimeter of cortical bone lining membrane / Bone density of the whole bones: OVX mice, 3 months dosing after 2-month induction; for Bone density of the whole bones: right femur, pQCT
Protocol: Four-week-old female Slc; ddy mice (Japan SLC, Inc.) were purchased, and they were divided into 8 groups without acclimate keeping (6 mice per group). They were anesthetized by using 50 mg/kg of pentobarbital to be ovariectomized (it is referred to as “OVX” herein below) or to have Sham operation (it is referred to as “Sham” herein below) under the anesthesia which is given by intraperitoneal administration of 50 mg/kg of Somnopentyl (pentobarbital sodium).
From the second day of the ovariectomy (or Sham operation), each group was maintained under the condition of 12 hour light/dark cycle, 23±3 degree centigrade as the room temperature, and humidity 55±5% for 2 months as the bone resorption induction period. The animal bedding was exchanged twice a week and all fresh bedding was used at all times. CRF-1 (Oriental Yeast Co., Ltd.) as the feed and deionized water as drinking water were freely given.
After two month period from the test start, the bone resorption induction period, the test substance were given to each group at the amount shown in the following Table 7 for 3 month.
Ninety % of MeOH fraction (Shin-i) obtained in Example 1 and Fargesin (may refer to “Far” thereafter) were respectively dissolved into TD solution at the concentration shown in Table 7, and then they were administrated per os.
Human PTH (1-34) (herein below, it is sometimes referred to as “hPTH (1-34)”) were dissolved in distilled water at the concentration of 80 μg/kg/day, and it was administrated subcutaneously.
After 3 month from the administration start, the mice belonging to all of the groups were weighed. They were anesthetized by using diethylether, and were collected their blood from their hearts, and then they were died. Then, organs such as the uterus, the white adipose tissue (WAT), the brown adipose tissue (BAT), the liver, the spleen, and both left and right lower extremities were removed. The left and right lower extremities were separated into the femurs and the tibias, and they were stored in 70% EtOH under the room temperature.
The muscles were removed from the obtained femur (right), and then its bone density and the like were measured by using pQCT employed in Example 1 under the following conditions.
Recognition of contour (CONTMODE): 2 (auto search of ROI)
Recognition method of cancellous bone: Surface & Area
Ration of cancellous bone area to all of the cross section areas: 35%
CORTMODE used in CORTBD: 1* * Voxels not larger than the standard value for distinguishing the cortical bone from the cancellous bone (threshold: threshold) were omitted. Each tissue weight was also measured.
TH value used in CORTBD: 690
Among the all data of cancellous bone density obtained from pQCT, both of the highest and the lowest data were deleted to obtain the Median. As to the other parameters were treated as the same as this, the graph was made with N=6. Statistical analysis was performed by using the Dennett's two-sided t test.

For `COc1ccc([C@@H]2OC[C@H]3[C@@H]2CO[C@@H]3c2ccc3c(c2)OCO3)cc1OC` [fargesin, Fargesin], which viability at 6 days, 2 µM ([1]; 2 μM) is on record?
Its viability at 6 days, 2 µM is 106 ± 3.2%.

What about the viability at 6 days, 6 µM ([1]; 6 μM) of the same molecule?
Its viability at 6 days, 6 µM is 105 ± 3.3%.

And the viability at 6 days, 20 µM ([1]; 20 μM)?
The viability at 6 days, 20 µM was 100 ± 3.4%.

What about the viability at 6 days, 60 µM ([1]; 60 μM) of the same molecule?
The viability at 6 days, 60 µM was 89.1 ± 3.9%.

And the viability at 6 days, 80 µM ([1]; 80 μM)?
The viability at 6 days, 80 µM was 92.6 ± 3.7%.

And the “Bone strength (polar coordinates torsion strength)” value ([2]; 2 mg administration group p.o.)?
The value was “significantly increased”.

And the “Bone strength (polar coordinates torsion strength)” value ([2]; 40 mg administration group p.o.)?
Its value is “significantly increased”.

And the “Bone density of cancellous bone, relative value” ([2]; Far 2: 2 mg/kg/day p.o.)?
Its value is 54.9.

What about the “Bone density of cortical bone, relative value” ([2]; Far 2: 2 mg/kg/day p.o.) of the same molecule?
The value was 92.7.

What about the “Bone density of the whole bones, relative value” ([2]; Far 2: 2 mg/kg/day p.o.) of the same molecule?
The value was 81.4.

What about the “Bone density of cancellous bone, relative value” ([2]; Far 20: 20 mg/kg/day p.o.) of the same molecule?
The value was 58.5.

And the “Bone density of cortical bone, relative value” ([2]; Far 20: 20 mg/kg/day p.o.)?
The value was 92.9.

What about the “Bone density of the whole bones, relative value” ([2]; Far 20: 20 mg/kg/day p.o.) of the same molecule?
Its value is 83.1.

What about the “Bone density of cancellous bone, relative value” ([2]; Far 40: 40 mg/kg/day p.o.) of the same molecule?
The value was 79.2.

What about the “Bone density of cortical bone, relative value” ([2]; Far 40: 40 mg/kg/day p.o.) of the same molecule?
The value was 90.4.

What about the “Bone density of the whole bones, relative value” ([2]; Far 40: 40 mg/kg/day p.o.) of the same molecule?
Its value is 85.7.

And the “Bone density of cancellous bone” value ([2]; Far 2: 2 mg/kg/day p.o.)?
The value was 64.10 ± 25.48 mg/cm^2.

And the “Bone density of cortical bone” value ([2]; Far 2: 2 mg/kg/day p.o.)?
The value was 911.65 ± 30.15 mg/cm^2.

And the “Bone thickness of cortical bone” value ([2]; Far 2: 2 mg/kg/day p.o.)?
Its value is 0.20 ± 0.03 mm.

What about the “Cross section area of cortical bone” value ([2]; Far 2: 2 mg/kg/day p.o.) of the same molecule?
The value was 1.46 ± 0.23 mm^2.

And the “Perimeter of cortical bone adventitia” value ([2]; Far 2: 2 mg/kg/day p.o.)?
Its value is 8.02 ± 0.26 mm.

What about the “Perimeter of cortical bone lining membrane” value ([2]; Far 2: 2 mg/kg/day p.o.) of the same molecule?
The value was 6.79 ± 0.19 mm.

What about the “Bone density of the whole bones” value ([2]; Far 2: 2 mg/kg/day p.o.) of the same molecule?
The value was 427.83 ± 36.00 mg/cm^2.

And the “Bone density of cancellous bone” value ([2]; Far 20: 20 mg/kg/day p.o.)?
The value was 68.22 ± 21.67 mg/cm^2.

What about the “Bone density of cortical bone” value ([2]; Far 20: 20 mg/kg/day p.o.) of the same molecule?
The value was 914.57 ± 43.90 mg/cm^2.

What about the “Bone thickness of cortical bone” value ([2]; Far 20: 20 mg/kg/day p.o.) of the same molecule?
Its value is 0.20 ± 0.03 mm.

What about the “Cross section area of cortical bone” value ([2]; Far 20: 20 mg/kg/day p.o.) of the same molecule?
The value was 1.48 ± 0.18 mm^2.

What about the “Perimeter of cortical bone adventitia” value ([2]; Far 20: 20 mg/kg/day p.o.) of the same molecule?
Its value is 8.04 ± 0.55 mm.

And the “Perimeter of cortical bone lining membrane” value ([2]; Far 20: 20 mg/kg/day p.o.)?
Its value is 6.78 ± 0.68 mm.

What about the “Bone density of the whole bones” value ([2]; Far 20: 20 mg/kg/day p.o.) of the same molecule?
Its value is 437.00 ± 49.48 mg/cm^2.

What about the “Bone density of cancellous bone” value ([2]; Far 40: 40 mg/kg/day p.o.) of the same molecule?
The value was 92.37 ± 41.29 mg/cm^2.

What about the “Bone density of cortical bone” value ([2]; Far 40: 40 mg/kg/day p.o.) of the same molecule?
Its value is 889.97 ± 23.31 mg/cm^2.

What about the “Bone thickness of cortical bone” value ([2]; Far 40: 40 mg/kg/day p.o.) of the same molecule?
Its value is 0.21 ± 0.02* mm.

What about the “Cross section area of cortical bone” value ([2]; Far 40: 40 mg/kg/day p.o.) of the same molecule?
The value was 1.56 ± 0.19* mm^2.

And the “Perimeter of cortical bone adventitia” value ([2]; Far 40: 40 mg/kg/day p.o.)?
Its value is 8.14 ± 0.39 mm.

What about the “Perimeter of cortical bone lining membrane” value ([2]; Far 40: 40 mg/kg/day p.o.) of the same molecule?
Its value is 6.83 ± 0.38 mm.

And the “Bone density of the whole bones” value ([2]; Far 40: 40 mg/kg/day p.o.)?
The value was 450.57 ± 33.72 mg/cm^2.
